Test results published in PubChem BioAssay (NCI).
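Growth conditions: 96-well plates. Treatment: test compound, 48 hours, 5 concentrations. Analysis: linear interpolation between bracketing concentrations; unreached endpoints set to highest concentration. TGI is the concentration that stops growth completely.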

Key:
Test in all cases: NCI anticancer screen, dose series, 48 h
[1] = system: A498 renal
[2] = system: A549 NSCLC
[3] = system: ACHN renal
[4] = system: HOP-62 NSCLC
[5] = system: HS 578T breast
[6] = system: KM12 colon
[7] = system: RPMI-8226 leukemia
[8] = system: SK-MEL-28 melanoma
[9] = system: T-47D breast
[10] = system: TK-10 renal

SMILES | TGI [1] [µM] | TGI [2] [µM] | TGI [3] [µM] | TGI [4] [µM] | TGI [5] [µM] | TGI [6] [µM] | TGI [7] [µM] | TGI [8] [µM] | TGI [9] [µM] | TGI [10] [µM]
CN(/N=C1\C(=O)Nc2ccccc21)c1ccccc1 | > 100 | > 100 | > 100 | > 100 | > 100 | > 100 | > 100 | > 100 | > 100 | > 100
Cc1ccc2c(c1C)C(=O)C1(Cc3cc4c(cc3C1=O)CCC4)C2 (stereo unspecified) | > 100 | > 100 | > 100 |  | > 100 | > 100 | > 100 | > 100 | > 100 | > 100
O=C(CC(NC(=O)C(F)(F)F)C(=O)O)OCc1ccccc1 (stereo unspecified) | > 100 | > 100 | > 100 | > 100 | > 100 | > 100 | > 100 | > 100 | > 100 | > 100
COCOc1ccc(C(=O)Oc2cccc3c2OC(C)(C)O3)c(OCOC)c1 | > 100 |  | > 100 | > 100 | 86 | 91.1 | > 100 | > 100 | > 100 | > 100
Cc1nnc2n(c1=O)CCCN2C |  | > 100 | > 100 | > 100 | > 100 | > 100 | > 100 | > 100 | > 100 | > 100
Cc1ccc(-c2cc(-c3ccco3)c(C#N)c(=S)[nH]2)cc1 | > 100 | > 100 | > 100 | > 100 | > 100 | > 100 | > 100 | > 100 | 71.5 | > 100
Cc1c2cccc-2c2cc(O)c3ccccc3c2n1-c1ccc(N(C)C)cc1 | 30.7 | 31.6 | 24.9 | 27.9 | 37.5 | 23.1 | 26.6 | 35 | 0.829 | 32.5
O=C(ON=C1c2ccccc2C(Br)C(Br)c2ccccc21)c1ccccc1 (stereo unspecified) | 40.9 | 44 | 33 | 17.3 | 53.6 | 33.5 | 14.7 | 33.2 | 29.3 | 31.5
O=CC(I)=C(c1ccccc1)c1ccccc1 | 41.8 | 36.1 | 38.1 | 32 | 63 | 28.7 | > 59 | 31.8 | 34.9 | 44.8
CCOC1C=CC(=O)C(CO)O1 (stereo unspecified) | 49.4 | 34.9 | 24.1 | 28.4 | 49 | 31.5 | 6 | 33.3 | 24.9 | 22.7
Clc1cccc(-c2sc(-c3cccs3)cc2Cc2cccs2)c1 |  | > 10 | > 10 | > 10 | > 10 | > 10 | > 10 | > 10 | > 10 | > 10
Cn1c2ccccc2n2c3ncccc3c(=O)c(C#N)c12 | 34 | > 36.7 | 11.7 | 29.5 | > 94.1 | > 100 | > 100 | > 100 | > 100 | > 100
CN(O)C(=O)/C=C/c1ccc(OCc2cccc(Cl)c2)cc1 | 66 | 63.5 | 29.9 | > 100 | > 100 | 41.3 | 96.9 | > 100 | 66.5 | > 100
COc1ccc2c(c1)c1c(n2CCN2CCCCC2)-c2cccc(OC)c2CC1 | 49.2 | > 100 | 43 | 32.4 | 42.4 | 28.8 | 35.5 | 35 | 47.2 | 32.8
Cc1ccc2cccc(-c3cccc4ccccc34)c2n1 | 46 | > 100 | > 100 | 56.9 | 81.9 | 63.4 | 40.2 | > 100 | > 100 | 36.2
COC(=O)/C=C(/C=C1/C(C#N)=C(N)N(c2ccc(Cl)cc2)C1(C)/C(=C\C(=O)OC)C(=O)OC)C(=O)OC (stereo unspecified) | > 100 | > 100 | 76.8 | > 100 | > 100 | 37 | > 100 | 36.2 | 39.5 | 81
NC1=CC(=O)c2c(O)ccc(O)c2C1=O | 47.5 | 49.6 | 34.2 | 64.9 | 68.3 | > 78.7 | 44.9 | 38 | 35.7 | > 84.8

SMILES | TGI [1] [µM] | TGI [2] [µM] | TGI [3] [µM] | TGI [4] [µM] | TGI [5] [µM] | TGI [6] [µM] | TGI [7] [µM] | TGI [8] [µM] | TGI [9] [µM] | TGI [10] [µM]
COc1ccc2ccc3oc(=O)c(C)cc3c2c1 | > 100 | > 100 | > 100 | > 100 | > 100 | > 100 | > 100 | > 100 | > 100 | > 100
CN(CCN1CCCC1)C1CCc2cc(Cl)c(Cl)cc2C1 (stereo unspecified) | 27.1 | 32.4 | 30.5 | 32.7 | 56.2 | 40.4 | 55.4 | 67.9 | 22.1 | 30.9
CC(=O)Nc1nc(Cl)cc(NCC2(CO)CCC2)n1 | > 100 | > 100 | > 100 | > 100 | > 100 | > 100 | > 100 | > 100 | > 100 | 
C[C@@H]1CC[C@@]2(C)C(C(=O)O)=CCCC2[C@@]1(C)CC(=O)c1ccoc1 (stereo partly specified) | > 25 | > 25 | > 25 |  | > 25 | > 25 | > 25 | > 25 | > 25 | > 25
COc1ccc2nc(NC(=O)/C(C#N)=C/c3ccccc3)sc2c1 | > 100 | > 100 | > 100 | > 100 | > 100 | > 73.3 | > 84.5 | > 100 | > 100 | 88
Nc1ncnc2c1nnn2C1C=CC(CP(=O)(O)O)C1 (stereo unspecified) |  | > 100 | > 100 | > 100 | > 100 | > 100 | > 100 | > 100 | > 100 | > 100
CCCCCCN(CCCCCC)C(=S)N/N=C(\C)c1ccccn1 | 9.29 | 3.66 | 2.17 | 3.32 | 4.46 | 2.73 | 3.22 | 3.04 | 1.91 | 2.5
COC1OC(C)C(NC(=O)OCC(Cl)(Cl)Cl)C2OC(C)(C)OC12 (stereo unspecified) | > 100 | > 100 | > 100 | > 100 | > 100 | > 100 | > 100 | > 100 | > 100 | > 100
Cn1c2ccccc2c2ccc3c(c21)C(=O)c1ccc2c4ccccc4n(C)c2c1C3=O | > 100 | > 100 | > 100 | > 100 | > 100 | > 100 | > 100 | > 100 | > 100 | > 100
O=C(COc1ccc(OCC(=O)N/N=C/c2ccc(-c3ccc(Cl)cc3Cl)o2)c(Cl)c1)N/N=C/c1ccc(-c2ccc(Cl)cc2Cl)o1 | > 100 | > 100 | > 100 | > 100 | > 100 | > 100 | 38.4 | > 100 | > 100 | > 100
O=C(/C=C/c1ccc(Cl)cc1)Oc1ccc(C=C2CCC/C(=C\c3ccc(OC(=O)/C=C/c4ccc(Cl)cc4)cc3)C2=O)cc1 | > 100 | > 100 | > 100 | > 100 | > 100 | > 100 | 97.1 | > 100 | > 100 | > 100
CN(C)CCN(c1ccccn1)c1ccccn1 | > 100 | > 100 | > 100 | > 100 | > 100 | > 100 | > 100 | > 100 | > 100 | > 100
OCc1ccc2c(c1)CC1(C2)Cc2cc3c(cc2C1O)CCC3 (stereo unspecified) | 27.7 | > 70.7 | 41.3 | 17.7 | 11.4 | 16.5 | 15.8 | 21.3 | 9.44 | 67.1
CC(=O)c1ccc(Oc2c3ccccc3nc3ccccc23)cc1 | 31.8 | 31.7 | 15.9 | 29.5 | 31.3 | 22.7 | 9.63 | 28.5 | 18 | 19.8
O=c1oc2ccc3ccccc3c2cc1-c1cn2ccsc2n1 |  | > 100 | 32.1 | > 100 | > 100 | 66.2 | 46.2 | 57.3 | 57.6 | 33.9
O=C(/C=C/c1ccc(O)c(O)c1)OCCc1ccc2ccccc2c1 | 28.4 | 24.9 | 15.1 | 26.4 | 24.1 | 12.9 |  | 21.8 | 18.7 | 20.4
